In patent US11279913B2, “Sperm processing method, apparatus and related media compositions” (Inguran, LLC, priority 2017, dated 2022):

Legend:
Type in all cases: cell-based
bovine sperm [1] = test: Motility of stained unsorted bovine sperm held in Caprogen-type fresh media (fluorescent CASA), Example 14
Source text: This is with “conventional” (unsorted) sperm stained with Hoechst 33342 (to facilitate CASA using fluorescence).
The fresh extender is a media similar to Caprogen, which contains 5% (v/v) egg yolk and is bubbled with nitrogen gas prior to diluting sperm.
In Caprogen with glycerol, the concentration of glycine is 135 millimolar and the concentration of glycerol is 135 millimolar. Control Media 1 was made with these same concentrations, while the balance of test media (Media 2-7) were made with the following concentrations as shown in Table 13:
Fresh Bovine Ejaculates of 5 bulls were diluted to 160 million sperm per mL into Staining TALP, combined with Hoechst 33342 DNA stain, incubated 60 minutes at 34° C. (as standard staining for XY sperm sorting). Once stained, the sperm in TALP were diluted in the related media to a new concentration of 15 million sperm per mL and placed into 0.25 cc straws, sealed and held horizontal at 18° C. for 4 days. On each day, one straw of sperm was warmed for 15 minutes at 34° C. and the contents of about 200 microliters from the straw were combined with 100 microliters of fresh media identical to the specified test media used to hold the sperm. Sperm were analyzed on fluorescent CASA (Hamilton Thorne IVOS II) using UV illumination.

bovine sperm [2] = test: Post-thaw visual motility of sperm sorted with different sheath fluids, Example 17 second test; conditions: up to 60 mM erythritol in sheath fluid; standard post-sort handling
Method: Standard bovine sperm sorting uses sheath fluid comprising 68 mM Fructose, 80 mM Citrate and 243 mM TRIS at pH 6.80 and osmolarity 290-300 mOsm. […] Combining 88 volumes of TRIS A with 12 volumes of pure glycerol creates a solution called TRIS B (The “B Fraction”). In the case of standard sperm sorting, the “B Fraction” may optionally contain no egg yolk and may be called “[…] Fraction” still containing 12 volumes of pure glycerol. […] The pH of all media was 6.70-6.75 and the osmolarity was 290-305 mOsm. The same two bulls were used for each of two tests and were measured for post-thaw quality at the same time. The first test was done with unstained non-sorted sperm similar to standard “conventional freezing.” The second test was done using different sheath fluids for sorting sperm. The second test compared a CONTROL (standard) sheath fluid to three alternate sheath fluids (H-J). After sorting all samples were handled in the identical manner to standard sperm sorting. A 3.5 mL volume of catch fluid (TRIS A) is placed in each catch tube and sorted sperm are sorted into the catch tube to a volume of 20 mL. That volume of fluid is then cooled for 90 minutes to about 4-6° C. then an equal volume of cold […] Fraction is added. […]

sorted bovine sperm = test: Motility of sorted bovine sperm stored in CaproGLY or CaproERY at 17° C. (visual and CASA), Example 15; conditions: holding times longer than 4 days; erythritol versus glycerol in Caprogen
Method: Standard Caprogen (with glycerol) is referred to as “CaproGLY” and erythritol containing Caprogen is referred to as “CaproERY.”
Preparation of media in volume of 100 mL: 95 mL of the respective media working solution is combined with 5 mL of egg yolk, stirred for 15 minutes, held overnight at 4° C., centrifuged for 60 minutes at 1200 G in 50 mL Falcon Tubes (clarified). On day of use, nitrogen gas is bubbled through the clarified media for 15 minutes.
Sorting of the sperm to be held in the two fresh extenders: Fresh Ejaculates of 3 Jersey bulls are bulk sorted according to standard proprietary sex sorting methods disclosed in other patents. In brief, sperm are washed, concentrated and resuspended in a Hepes buffered TRIS Citrate extender to normalize concentration to about […] and pH about 7.15. Each 1 mL of staining comprises: 0.150 mL of sperm solution (about 160 million sperm), 64 nanomoles of Hoechst 33342 in 8 microliters, […] of staining TALP and 100 nanomoles of FD&C food dye. […]
The formulated sperm are filled into 0.25 cc straws, sealed and stored horizontally at 17° C. for up to nine days. On the specified test days, a straw is opened and checked for visual motility (counted by eye by technician using microscope analysis on heated stage), CASA total motility and CASA progressive motility using a Hamilton Thorne IVOS system. […]

bovine sperm [3] = test: Post-thaw visual motility of unstained non-sorted sperm frozen in erythritol test media, Example 17 first test
Method: Standard bovine sperm sorting uses sheath fluid comprising 68 mM Fructose, 80 mM Citrate and 243 mM TRIS at pH 6.80 and osmolarity 290-300 mOsm. […] Combining 88 volumes of TRIS A with 12 volumes of pure glycerol creates a solution called TRIS B (The “B Fraction”). In the case of standard sperm sorting, the “B Fraction” may optionally contain no egg yolk and may be called “[…] Fraction” still containing 12 volumes of pure glycerol. […] The pH of all media was 6.70-6.75 and the osmolarity was 290-305 mOsm. The same two bulls were used for each of two tests and were measured for post-thaw quality at the same time. The first test was done with unstained non-sorted sperm similar to standard “conventional freezing.” The second test was done using different sheath fluids for sorting sperm. The first test compared control (standard media) to 7 alternate media (A-G) with compositions including various amounts of erythritol and in some cases glycine. 10 milliliters of sperm of each bull at a concentration of 100 million sperm per milliliter was cooled in standard TRIS A (control media) over 90 minutes from room temperature to about 4-6° C. Samples were then divided into 1 milliliter aliquots and 0.5 mL of cold TEST-B media was added, held for 15 minutes before an additional 0.5 mL of TEST-B media was added. […]

OCC(O)CO [glycerol, reference compound]
support of sperm motility (in words) (bovine sperm [1]; up to 4 days, 135 millimolar glycerol, or its replacement with erythritol, in Caprogen fresh media): beneficial for supporting sperm motility

OC[C@@H](O)[C@@H](O)CO [erythritol]
effect on sperm quality when present in sheath fluid (in words) (bovine sperm [2]): beneficial to sperm quality | support of bovine sperm motility (in words) (bovine sperm [1]; as much as 400 millimolar Erythritol in fresh bovine extender, 4 day period): good support of bovine sperm motility | preserving quality as seen in motility (in words) (sorted bovine sperm): better at preserving quality as seen in motility | erythritol concentration giving optimal freezing results (bovine sperm [3]): 15 to 50 mM
